Columns and labels:
[1] = test system: smallflower umbrella sedge; assay: Test C flooded paddy test; assay type: in vivo, Cyperus difformis; settings: for Plant response rating, Sedge, Umbrella: 500 g ai/ha, visual rating after 12 to 14 days
[2] = test system: goosegrass; assay: Test C pre-/postemergence herbicide test; assay type: in vivo, Eleusine indica; settings: for Goosegrass plant response rating: 500 g ai/ha
Method in brief: (§1)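 Emerged plants at the 1- to 4-leaf stage (2–18 cm), or freshly planted seeds, received test chemicals in a non-phytotoxic solvent mixture with surfactant. Response was visually scored against controls after 12 to 14 days in the greenhouse, on a 0 (no effect) to 100 (complete control) scale.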

[3] = test system: ducksalad; assay: Test C flooded paddy test; assay type: in vivo, Heteranthera limosa; settings: for Plant response rating, Ducksalad: 500 g ai/ha, visual rating after 12 to 14 days
[4] = test system: lambsquarters; assay: Test C pre-/postemergence herbicide test; assay type: in vivo, Chenopodium album; settings: for Lambsquarters plant response rating: 500 g ai/ha
Method in brief: as §1

[5] = test system: morningglory; assay: Test C pre-/postemergence herbicide test; assay type: in vivo, Ipomoea coccinea; set-up: key to Plant response rating, Morningglory: 0 = no effect, 100 = complete control; settings: for Morningglory plant response rating: 500 g ai/ha
Method in brief: as §1

[6] = test system: kochia; assay: Test C pre-/postemergence herbicide test; assay type: in vivo, Kochia scoparia; settings: for Kochia plant response rating: 500 g ai/ha
Method in brief: as §1

[7] = test system: bermudagrass; assay: Test C pre-/postemergence herbicide test; assay type: in vivo, Cynodon dactylon; settings: for Bermudagrass plant response rating: 500 g ai/ha
Method in brief: as §1

[8] = test system: redroot pigweed; assay: Test A pre-/postemergence herbicide test; assay type: in vivo, Amaranthus retroflexus
Method in brief: (§2)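 Both application timings were run together: directed soil spray over freshly planted seeds in sandy loam, and runoff spray onto 2–10 cm seedlings. Evaluation after ~10 days in greenhouse used a 0–100 visual scale versus untreated controls.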

[9] = test system: giant foxtail; assay: Test A pre-/postemergence herbicide test; assay type: in vivo, Setaria faberi
Method in brief: as §2

[10] = test system: cocklebur; assay: Test C pre-/postemergence herbicide test; assay type: in vivo, Xanthium strumarium; settings: for Cocklebur plant response rating: 500 g ai/ha
Method in brief: as §1

[11] = test system: barnyardgrass; assay: Test A pre-/postemergence herbicide test; assay type: in vivo, Echinochloa crus-galli
Method in brief: as §2

[12] = test system: woolly cupgrass; assay: Test C pre-/postemergence herbicide test; assay type: in vivo, Eriochloa villosa; settings: for Cupgrass, Woolly plant response rating: 500 g ai/ha
Method in brief: as §1

[13] = 62 g ai/ha, scale 0 to 100 (0 no effect, 100 complete control)
[14] = 125 g ai/ha, scale of 0 to 100, 0 is no effect, 100 is complete control
[15] = 250 g ai/ha, scale of 0 to 100, 0 is no effect, 100 is complete control
[16] = scale 0 to 100 (0 no effect, 100 complete control)
[17] = 125 g ai/ha, scale 0 (no effect) to 100 (complete control), visual, 12 to 14 days, preemergence
[18] = Postemergence, 250 g ai/ha, scale 0 to 100, 0 no effect, 100 complete control
[19] = Preemergence, scale 0 to 100, 0 no effect, 100 complete control
[20] = postemergence, 125 g ai/ha, scale 0 to 100
[21] = postemergence, 62 g ai/ha, scale 0 to 100
[22] = 250 g ai/ha, scale 0 to 100 (0 no effect, 100 complete control), visual, 12 to 14 days, preemergence
[23] = Postemergence, 500 g ai/ha, 0 to 100 scale, 0 no effect, 100 complete control
[24] = Postemergence, 2000 g ai/ha, 0 to 100 scale, 0 no effect, 100 complete control
[25] = Preemergence, 500 g ai/ha, visual rating, 0 to 100 scale (0 no effect, 100 complete control)
[26] = Preemergence, 2000 g ai/ha, visual rating, 0 to 100 scale (0 no effect, 100 complete control)
[27] = 125 g ai/ha, scale 0 to 100 (0 no effect, 100 complete control)
[28] = Postemergence, 250 g ai/ha, 0 to 100 scale, 0 no effect, 100 complete control
[29] = Postemergence, 1000 g ai/ha, 0 to 100 scale, 0 no effect, 100 complete control
[30] = Preemergence, 1000 g ai/ha, visual rating, 0 to 100 scale (0 no effect, 100 complete control)
[31] = preemergence, 250 g ai/ha, visual injury, 0 to 100 scale (0 no effect, 100 complete control)

CCn1nc(C(C)(C)C)cc1C(=O)Nc1cccc(C(C)=NO)c1 [Compound 108]
Sedge, Umbrella plant response rating [1, 13]: 60
Sedge, Umbrella plant response rating [1, 14]: 80
Sedge, Umbrella plant response rating [1, 15]: 80
Plant response rating, Sedge, Umbrella [1, 16]: 80
Plant response rating (0 = no effect, 100 = complete control), Goosegrass ([2]; 62 g ai/ha, preemergence): 90
Plant response rating, Goosegrass [2, 17]: 100
Goosegrass plant response rating ([2]; Postemergence, scale 0 to 100): 70
Plant response rating, Goosegrass [2, 18]: 70
Goosegrass plant response rating [2, 19]: 100
Plant response rating, Goosegrass [2, 20]: 40
Plant response rating, Goosegrass [2, 21]: 20
Ducksalad plant response rating [3, 13]: 50
Ducksalad plant response rating [3, 14]: 70
Ducksalad plant response rating [3, 15]: 80
Plant response rating, Ducksalad [3, 16]: 90
Plant response rating (0 = no effect, 100 = complete control), Lambsquarters ([4]; 62 g ai/ha, preemergence): 100
Plant response rating, Lambsquarters [4, 17]: 100
Lambsquarters plant response rating ([4]; Postemergence, scale 0 to 100): 100
Plant response rating, Lambsquarters [4, 18]: 100
Lambsquarters plant response rating [4, 19]: 100
Plant response rating, Lambsquarters [4, 20]: 100
Plant response rating, Lambsquarters [4, 21]: 70
Plant response rating (0 = no effect, 100 = complete control), Morningglory ([5]; 62 g ai/ha, preemergence): 40
Morningglory plant response rating [5, 19]: 90
Plant response rating, Morningglory [5, 20]: 60
Plant response rating, Morningglory [5, 21]: 30
Plant response rating (0 = no effect, 100 = complete control), Kochia ([6]; 62 g ai/ha, preemergence): 100
Plant response rating, Kochia [6, 17]: 100
Kochia plant response rating ([6]; Postemergence, scale 0 to 100): 90
Plant response rating, Kochia [6, 18]: 90
Kochia plant response rating [6, 19]: 100
Plant response rating, Kochia [6, 20]: 80
Plant response rating, Kochia [6, 21]: 60
Plant response rating (0 = no effect, 100 = complete control), Bermudagrass ([7]; 62 g ai/ha, preemergence): 100
Plant response rating, Bermudagrass [7, 17]: 100
Plant response rating, Bermudagrass [7, 22]: 100
Bermudagrass plant response rating ([7]; Postemergence, scale 0 to 100): 80
Plant response rating, Bermudagrass [7, 18]: 60
Bermudagrass plant response rating [7, 19]: 100
Plant response rating, Bermudagrass [7, 20]: 30
Plant response rating, Bermudagrass [7, 21]: 30
Pigweed plant response rating [8, 23]: 100
Plant response rating, Pigweed [8, 24]: 100
Pigweed plant response rating [8, 25]: 100
Pigweed plant response rating [8, 26]: 100
Foxtail, Giant plant response rating [9, 23]: 90
Plant response rating, Foxtail, Giant [9, 24]: 100
Foxtail, Giant plant response rating [9, 25]: 95
Foxtail, Giant plant response rating [9, 26]: 100
Plant response rating (0 = no effect, 100 = complete control), Cocklebur ([10]; 62 g ai/ha, preemergence): 20
Plant response rating, Cocklebur [10, 17]: 30
Plant response rating, Cocklebur [10, 22]: 30
Cocklebur plant response rating ([10]; Postemergence, scale 0 to 100): 100
Plant response rating, Cocklebur [10, 18]: 100
Cocklebur plant response rating [10, 19]: 50
Plant response rating, Cocklebur [10, 20]: 80
Plant response rating, Cocklebur [10, 21]: 70
Barnyardgrass plant response rating [11, 23]: 85
Plant response rating, Barnyardgrass [11, 24]: 100
Barnyardgrass plant response rating [11, 25]: 85
Barnyardgrass plant response rating [11, 26]: 90
Plant response rating (0 = no effect, 100 = complete control), Cupgrass, Woolly ([12]; 62 g ai/ha, preemergence): 30
Plant response rating, Cupgrass, Woolly [12, 17]: 50
Plant response rating, Cupgrass, Woolly [12, 22]: 50
Cupgrass, Woolly plant response rating ([12]; Postemergence, scale 0 to 100): 40
Plant response rating, Cupgrass, Woolly [12, 18]: 40
Cupgrass, Woolly plant response rating [12, 19]: 80
Plant response rating, Cupgrass, Woolly [12, 20]: 40
Plant response rating, Cupgrass, Woolly [12, 21]: 20

CC(=NO)c1cccc(NC(=O)c2cc(C(C)(C)C)nn2CC(F)(F)F)c1 [Compound 112]
Sedge, Umbrella plant response rating [1, 13]: 0
Sedge, Umbrella plant response rating [1, 14]: 0
Sedge, Umbrella plant response rating [1, 15]: 25
Plant response rating, Sedge, Umbrella [1, 16]: 50
Goosegrass plant response rating ([2]; Postemergence, scale 0 to 100): 30
Plant response rating, Goosegrass [2, 18]: 30
Plant response rating, Goosegrass [2, 20]: 20
Plant response rating, Goosegrass [2, 21]: 20
Ducksalad plant response rating [3, 13]: 0
Ducksalad plant response rating [3, 14]: 0
Ducksalad plant response rating [3, 15]: 0
Plant response rating, Ducksalad [3, 16]: 100
Lambsquarters plant response rating ([4]; Postemergence, scale 0 to 100): 100
Plant response rating, Lambsquarters [4, 18]: 100
Plant response rating, Lambsquarters [4, 20]: 20
Plant response rating, Lambsquarters [4, 21]: 20
Morningglory plant response rating ([5]; Postemergence, scale 0 to 100): 100
Plant response rating, Morningglory [5, 18]: 70
Plant response rating, Morningglory [5, 20]: 20
Plant response rating, Morningglory [5, 21]: 0
Kochia plant response rating ([6]; Postemergence, scale 0 to 100): 80
Plant response rating, Kochia [6, 20]: 20
Plant response rating, Kochia [6, 21]: 0
Bermudagrass plant response rating ([7]; Postemergence, scale 0 to 100): 30
Plant response rating, Bermudagrass [7, 18]: 30
Plant response rating, Bermudagrass [7, 20]: 0
Plant response rating, Bermudagrass [7, 21]: 0
Pigweed plant response rating [8, 23]: 40
Plant response rating, Pigweed [8, 24]: 60
Pigweed plant response rating [8, 25]: 65
Pigweed plant response rating [8, 26]: 90
Foxtail, Giant plant response rating [9, 23]: 20
Plant response rating, Foxtail, Giant [9, 24]: 35
Foxtail, Giant plant response rating [9, 25]: 25
Foxtail, Giant plant response rating [9, 26]: 50
Cocklebur plant response rating ([10]; Postemergence, scale 0 to 100): 70
Plant response rating, Cocklebur [10, 18]: 60
Plant response rating, Cocklebur [10, 20]: 30
Plant response rating, Cocklebur [10, 21]: 0
Barnyardgrass plant response rating [11, 23]: 35
Plant response rating, Barnyardgrass [11, 24]: 45
Barnyardgrass plant response rating [11, 25]: 25
Barnyardgrass plant response rating [11, 26]: 50
Cupgrass, Woolly plant response rating ([12]; Postemergence, scale 0 to 100): 70
Plant response rating, Cupgrass, Woolly [12, 18]: 60
Plant response rating, Cupgrass, Woolly [12, 20]: 30
Plant response rating, Cupgrass, Woolly [12, 21]: 0

CCn1nc(C(C)(C)C)cc1C(=O)Nc1cccc(S(=O)(=O)C(F)(F)F)c1 [Compound 134]
Sedge, Umbrella plant response rating [1, 13]: 55
Sedge, Umbrella plant response rating [1, 27]: 75
Sedge, Umbrella plant response rating [1, 15]: 85
Plant response rating, Sedge, Umbrella [1, 16]: 85
Plant response rating (0 = no effect, 100 = complete control), Goosegrass ([2]; 62 g ai/ha, preemergence): 20
Plant response rating, Goosegrass [2, 17]: 65
Goosegrass plant response rating [2, 19]: 95
Ducksalad plant response rating [3, 13]: 45
Ducksalad plant response rating [3, 27]: 70
Ducksalad plant response rating [3, 15]: 90
Plant response rating, Ducksalad [3, 16]: 90
Plant response rating (0 = no effect, 100 = complete control), Lambsquarters ([4]; 62 g ai/ha, preemergence): 100
Plant response rating, Lambsquarters [4, 17]: 100
Lambsquarters plant response rating [4, 19]: 100
Plant response rating (0 = no effect, 100 = complete control), Morningglory ([5]; 62 g ai/ha, preemergence): 0
Plant response rating, Morningglory [5, 17]: 0
Morningglory plant response rating [5, 19]: 75
Plant response rating (0 = no effect, 100 = complete control), Kochia ([6]; 62 g ai/ha, preemergence): 85
Plant response rating, Kochia [6, 17]: 100
Kochia plant response rating [6, 19]: 100
Plant response rating (0 = no effect, 100 = complete control), Bermudagrass ([7]; 62 g ai/ha, preemergence): 80
Plant response rating, Bermudagrass [7, 17]: 95
Plant response rating, Bermudagrass [7, 22]: 95
Bermudagrass plant response rating [7, 19]: 100
Pigweed plant response rating [8, 28]: 85
Plant response rating, Pigweed [8, 29]: 100
Pigweed plant response rating [8, 30]: 100
Pigweed plant response rating [8, 31]: 35
Foxtail, Giant plant response rating [9, 28]: 15
Plant response rating, Foxtail, Giant [9, 29]: 35
Foxtail, Giant plant response rating [9, 30]: 45
Foxtail, Giant plant response rating [9, 31]: 20
Plant response rating (0 = no effect, 100 = complete control), Cocklebur ([10]; 62 g ai/ha, preemergence): 0
Plant response rating, Cocklebur [10, 17]: 0
Plant response rating, Cocklebur [10, 22]: 0
Cocklebur plant response rating [10, 19]: 0
Barnyardgrass plant response rating [11, 28]: 30
Plant response rating, Barnyardgrass [11, 29]: 70
Barnyardgrass plant response rating [11, 30]: 45
Barnyardgrass plant response rating [11, 31]: 25
Plant response rating (0 = no effect, 100 = complete control), Cupgrass, Woolly ([12]; 62 g ai/ha, preemergence): 0
Plant response rating, Cupgrass, Woolly [12, 17]: 0
Plant response rating, Cupgrass, Woolly [12, 22]: 20
Cupgrass, Woolly plant response rating [12, 19]: 45

From US20060069132A1, “Azolecarboxamide herbicides” (priority 2004, published 2006)
